The values that follow come from patent US20100298376A1, “USE OF NOVEL NEUROPROTECTIVE 3-SUBSTITUTED INDOLONE COMPOSITIONS” (BOARD OF REGENTS, THE UNIVERSITY OF TEXAS SYSTEM, priority 2009, published 2010).

Where “and” joins values, the source holds several entries; their conditions need not be identical. Identical values can stand only once. Like-named read-outs stand apart in the source and are kept apart here.

Data set [1] has as its system cerebellar granule neurons. Particulars: for % neuronal survival Mean ± SD: 24 hours, percent of HK control. The procedure: These compounds were analyzed for their neuroprotective activity in vitro. Granule neuron cultures were obtained from dissociated cerebella of 7-8 day old Wistar rats as known to one of ordinary skill in the art. Cells were plated in Basal Eagle's Medium with Earles salts (BME) supplemented with 10% fetal calf serum (FCS), 25 mM KCl, 2 mM glutamine (Invitrogen), and 100 μg/ml gentamycin on dishes (Nunc) coated with poly-L-lysine in 24-well dishes at a density 1×10^6 cells/well. Cytosine arabinofuranoside (10 μM) was added to the culture medium 18-22 hours after plating to prevent replication of non-neuronal cells that yields highly pure culture of granule neurons. The neuronal cultures were maintained for 7-8 days prior to treatments.
This experimental model of neuronal apoptosis has been used widely used to understand the molecular mechanisms underlying neurodegeneration and to identify biological and chemical agents with neuroprotective efficacy. For this, the cells were rinsed once and then maintained in low K^+ medium (serum-free BME medium, 5 mM KCl; referred to as LK), or in the case of control cultures, in high K^+ medium (serum-free BME medium, supplemented with 20 mM KCl; referred to as HK). Each compound was tested at three different concentrations of 1 μM, 5 μM, and 25 μM. The 25 μM concentration was included to evaluate neurotoxicity. For treatments, the chemical compounds (dissolved in dimethylsulfoxide) were added directly to LK medium at the time of the switch from HK at concentrations of 1 μM, 5 μM, or 25 μM. Viability was assessed 24 hours later. Each compound was tested in duplicate (at each of the concentrations) and the experiment repeated at least 3 times. Although all compounds were solubilized in dimethylsulfoxide (DMSO), the amount of DMSO in the cultures never exceeded 0.1% (v/v).
The viability status of neuronal cultures treated with HK, LK, or LK medium supplemented with various compounds was evaluated by phase contrast microscopy and quantified by staining cell nuclei with 4′,6′-diamidino2-phenylindole hydrochloride (DAPI). Briefly, the cells were fixed in 4% paraformaldehyde for 20 minutes at 4′C. After washing in phosphate buffered saline, DAPI (1 μg/ml in phosphate buffered saline) was added for 15 min at room-temperature and viewed under ultraviolet light (260 nm). Cells with condensed or fragmented nuclei were scored as dead. […] Statistical analysis was performed using an unpaired, two-tailed Student's t test, compared to mean neuronal survival of control cultures receiving LK treatment and the quantitative data are presented in Tables 1 and 2 for each compound.

The nature of data set [2]: Z/E isomer stability in DMSO-d6 by NMR. Format: physicochemical. The following applies: 6 hours from mixing.
[3] abbreviates: LK medium, concentration not specified.

Turning to `O=C1Nc2ccc([N+](=O)[O-])cc2/C1=C/c1cc(Br)c(O)c(Br)c1` [Compound 21, (Z)-3-(3′,5′-Dibromo-4-hydroxybenzylidene)-5-nitroindolin-2-one], in data set [1] (setting [3]), the “neuroprotective activity (in words)” value is recorded as “superior to Compound 1”. In addition, the “% neuronal survival Mean ± SD” value was 79.9 ± 12.81% in data set [1] (Table 1, 1 μM in LK medium); 78.4 ± 31.66% in data set [1] (Table 1, 5 μM in LK medium); 71.3 ± 19.80% in data set [1] (Table 1, 25 μM in LK medium). Moreover, the “percent of Z configuration after 6 hours” value in data set [2] worked out at 70%.

For `O=C1Nc2ccc(Cl)cc2/C1=C\c1cc(Br)c(O)c(Br)c1` [Compound 7, (E)-3-(3′,5′-Dibromo-4-hydroxybenzylidene)-5-chlorondolin-2-one], in data set [1], the “neurotoxicity (in words)” value is reported as “not toxic”. Further, the “% neuronal survival Mean ± SD” value is 84.3 ± 1.04 % in data set [1] (Table 1, 1 μM in LK medium); 91.9% and 91.9 ± 5.31 % in data set [1] (Table 1, 5 μM in LK medium); 81.8 ± 14.94 % in data set [1] (Table 1, 25 μM in LK medium). The “neuroprotective activity (in words)” value in data set [1] (at 5 μM) was “highly effective”. The “percent of Z configuration after 6 hours” value in data set [2] came out at 70%.

With `CN(C)c1ccc(/C=C2/C(=O)Nc3ccc(Br)cc32)cc1` [Compound 20, (E)-5-Bromo-3-(4′-(dimethylamino)benzylidene)indolin-2-one], in data set [1] (setting [3]), the “neuroprotective activity (in words)” value is listed as “not effective”. Besides, the “% neuronal survival Mean ± SD” value amounted to 56.5 ± 2.28% in data set [1] (Table 1, 1 μM in LK medium); 54.9 ± 9.18% in data set [1] (Table 1, 5 μM in LK medium); 68.6 ± 9.38% in data set [1] (Table 1, 25 μM in LK medium).

Turning to `O=C1Nc2ccc(F)cc2/C1=C/c1ccc[nH]1` [Compound 40], the “neuroprotective activity (in words)” value in data set [1] (setting [3]) was “highest neuroprotective activity”; in data set [1] (at 25 μM / high doses), “the most effective one”. Further, the “% neuronal survival Mean ± SD” value is on record as 58.4 ± 3.98% in data set [1] (Table 2, 1 μM in LK medium); 65.7 ± 0.07% in data set [1] (Table 2, 5 μM in LK medium); 96.6 ± 1.91 % in data set [1] (Table 2, 25 μM in LK medium).

As to `O=C1Nc2ccccc2/C1=C/c1ccc[nH]1` [Compound 35], the “% neuronal survival Mean ± SD” value in data set [1] (Table 2, 1 μM in LK medium) is 56.0 ± 17.21%; in data set [1] (Table 2, 5 μM in LK medium) it was 51.1 ± 7.06%; in data set [1] (Table 2, 25 μM in LK medium) it was 3.88 ± 9.58 %.

`O=C1Nc2ccc(F)cc2/C1=C\c1ccccc1` [Compound 33, (E)-3-Benzylidene-5-fluoroindolin-2-one]: the “neuroprotective activity (in words)” value in data set [1] (setting [3]) was “not effective”. Further, the “% neuronal survival Mean ± SD” value in data set [1] (Table 1, 1 μM in LK medium) came out at 53.4 ± 2.12%; in data set [1] (Table 1, 5 μM in LK medium), 51.9 ± 15.56%; in data set [1] (Table 1, 25 μM in LK medium), 31.5 ± 17.51%.

As for `CC(=O)c1ccc2c(c1)/C(=C/c1cc(Br)c(O)c(Br)c1)C(=O)N2` [Compound 34, (Z)-5-Acetyl-3-(3′,5′-dibromo-4′-hydroxybenzylidene)indolin-2-one], the “neuroprotective activity (in words)” value in data set [1] (setting [3]) is recorded as “superior to Compound 1”; in data set [1] (at 1 μM and 5 μM (two lower concentrations)), “impressive neuroprotection”. The “% neuronal survival Mean ± SD” value in data set [1] (Table 1, 1 μM in LK medium) is 96.8% and 96.8 ± 6.15 %; in data set [1] (Table 1, 5 μM in LK medium) it was 110.3% and 110.3 ± 8.50 %; in data set [1] (Table 1, 25 μM in LK medium), 2.2 ± 1.63 %.

Take `O=C1Nc2ccc([N+](=O)[O-])cc2/C1=C\C=C\c1ccccc1` [Compound 26]: the “% neuronal survival Mean ± SD” value was 80.1 ± 4.21 % in data set [1] (Table 1, 1 μM in LK medium); 78.6 ± 13.04% in data set [1] (Table 1, 5 μM in LK medium); 83.9 ± 9.28 % in data set [1] (Table 1, 25 μM in LK medium).

In the case of `O=C1Nc2ccc(F)cc2/C1=C/c1cccs1` [Compound 44, (Z)-5-Fluoro-3-(thien-2′-ylmethylene)indolin-2-one], the “neuroprotective activity (in words)” value in data set [1] (setting [3]) is “low protection”. In addition, the “% neuronal survival Mean ± SD” value was determined as 53.6 ± 14.24% in data set [1] (Table 2, 1 μM in LK medium); 60.1 ± 10.28% in data set [1] (Table 2, 5 μM in LK medium); 68.7 ± 9.35% in data set [1] (Table 2, 25 μM in LK medium).

For the compound `O=C1Nc2ccc(Cl)cc2/C1=C/c1ccc[nH]1` [Compound 36], in data set [1] (setting [3]), the “neuroprotective activity (in words)” value was “moderate protective activity”. Also, the “% neuronal survival Mean ± SD” value in data set [1] (Table 2, 1 μM in LK medium) was 71.2 ± 0.02 %; in data set [1] (Table 2, 5 μM in LK medium), 84.0 ± 16.97 %; in data set [1] (Table 2, 25 μM in LK medium), 82.6 ± 10.18 %.

On to `COc1cc(/C=C2\C(=O)Nc3ccc(Br)cc32)cc(OC)c1OC` [Compound 18, (Z)-5-Bromo-3-(3′, 4′,5′-trimethoxybenzylidene)indolin-2-one], for which the “neuroprotective activity (in words)” value in data set [1] (setting [3]) is recorded as “not effective”. Also, the “% neuronal survival Mean ± SD” value is recorded as 50.8 ± 7.67% in data set [1] (Table 1, 1 μM in LK medium); 59.9 ± 12.94% in data set [1] (Table 1, 5 μM in LK medium); 61.3 ± 1.20% in data set [1] (Table 1, 25 μM in LK medium).

Turning to “(Z)-5-Bromo (3-(1H-pyrrol-2′-yl)methylene)indolin-2-one [Compound 37]”, the “neuroprotective activity (in words)” value in data set [1] (setting [3]) was “one of the most potent effective neuroprotective agents discovered”. Also, the “% neuronal survival Mean ± SD” value amounted to 75.5 ± 14.58% in data set [1] (Table 2, 1 μM in LK medium); 94.2 ± 0.15 % in data set [1] (Table 2, 5 μM in LK medium); 93.0 ± 1.38 % in data set [1] (Table 2, 25 μM in LK medium).

Regarding `CN(C)c1ccc(/C=C2/C(=O)Nc3ccc(Cl)cc32)cc1` [Compound 15, (E)-5-Chloro-3-(4′-(dimethylamino)benzylidene)indolin-2-one], the “% neuronal survival Mean ± SD” value in data set [1] (Table 1, 1 μM in LK medium) is listed as 51.8 ± 15.66%; in data set [1] (Table 1, 5 μM in LK medium), 55.8 ± 16.94%; in data set [1] (Table 1, 25 μM in LK medium), 79.7 ± 4.69 %.

In the case of `O=C1Nc2ccc(Br)cc2/C1=C/c1cc(Br)cc(Br)c1` [Compound 17, (Z)-5-Bromo-3-(3′,5′-dibromobenzylidene)indolin-2-one], the “% neuronal survival Mean ± SD” value was 54.7 ± 8.56% in data set [1] (Table 1, 1 μM in LK medium); 45.4 ± 3.05% in data set [1] (Table 1, 5 μM in LK medium); 46.9 ± 7.74% in data set [1] (Table 1, 25 μM in LK medium).

Consider `O=C1Nc2ccc([N+](=O)[O-])cc2/C1=C/c1cc(Br)cc(Br)c1` [Compound 22, (Z)-3-(3′,5′-Dibromobenzylidene)-5-nitroindolin-2-one], for which the “% neuronal survival Mean ± SD” value is recorded as 78.1 ± 5.82 % in data set [1] (Table 1, 1 μM in LK medium); 78.7 ± 15.86% in data set [1] (Table 1, 5 μM in LK medium); 74.5 ± 9.12% in data set [1] (Table 1, 25 μM in LK medium).

`O=C1Nc2ccc(Cl)cc2/C1=C\c1ccccc1` [Compound 12, (E)-3-Benzylidene-5-chloroindolin-2-one]: the “neuroprotective activity (in words)” value in data set [1] (setting [3]) is on record as “not effective”. In addition, the “% neuronal survival Mean ± SD” value in data set [1] (Table 1, 1 μM in LK medium) is reported as 58.6 ± 3.27%; in data set [1] (Table 1, 5 μM in LK medium) it was 63.8 ± 8.63%; in data set [1] (Table 1, 25 μM in LK medium), 41.1 ± 21.41%.

For the compound `Cc1ccc(/C=C2/C(=O)Nc3ccc(Cl)cc32)cc1` [Compound 13, (E)-5-Chloro-3-(4′-methybenzylidene)indolin-2-one], the “% neuronal survival Mean ± SD” value is reported as 70.0 ± 17.50% in data set [1] (Table 1, 1 μM in LK medium); 70.6 ± 13.86% in data set [1] (Table 1, 5 μM in LK medium); 67.4 ± 17.40% in data set [1] (Table 1, 25 μM in LK medium).

Regarding `CC(=O)Oc1c(Br)cc(/C=C2/C(=O)Nc3ccc(Cl)cc32)cc1Br` [Compound 9, (E)-2,6-Dibromo-4-(5′-chloro-2′-oxoindolin-3-ylidene)methyl)phenyl acetate], the “neuroprotective activity (in words)” value in data set [1] (setting [3]) is reported as “reduced activity”. Also, the “% neuronal survival Mean ± SD” value in data set [1] (Table 1, 1 μM in LK medium) was found to be 73.0 ± 5.59 %; in data set [1] (Table 1, 5 μM in LK medium) it was 84.6 ± 16.19 %; in data set [1] (Table 1, 25 μM in LK medium), 75.2 ± 31.54%.

For `O=C1Nc2ccc([N+](=O)[O-])cc2/C1=C/c1cccs1` [Compound 42, (Z)-5-Nitro-3-(thien-2′-ylmethylene)indolin-2-one], the “% neuronal survival Mean ± SD” value in data set [1] (Table 2, 1 μM in LK medium) is 75.1 ± 9.11 %; in data set [1] (Table 2, 5 μM in LK medium) it was 67.6 ± 2.29%; in data set [1] (Table 2, 25 μM in LK medium), 66.9 ± 10.30%.

In the case of `O=C1Nc2ccccc2/C1=C\c1cc(Br)cc(Br)c1` [Compound 2, (E)-3-(3′,5′-Dibromobenzylidene)indolin-2-one], the “% neuronal survival Mean ± SD” value was 54.7 ± 5.32% in data set [1] (Table 1, 1 μM in LK medium); 45.4 ± 4.32% in data set [1] (Table 1, 5 μM in LK medium); 46.9 ± 12.30% in data set [1] (Table 1, 25 μM in LK medium). The “neuroprotective activity (in words)” value in data set [1] (at all three concentrations) is “not protective”.

As to `O=C1Nc2ccc([N+](=O)[O-])cc2/C1=C\C=Cc1ccccc1[N+](=O)[O-]` [Compound 27], the “% neuronal survival Mean ± SD” value in data set [1] (Table 1, 1 μM in LK medium) came to 78.6 ± 6.84 %; in data set [1] (Table 1, 5 μM in LK medium) it was 51.9 ± 7.50%; in data set [1] (Table 1, 25 μM in LK medium) it was 78.6 ± 16.33%.
